Among the data in ChEMBL document CHEMBL1143793, “Solid-phase synthesis of Stat3 inhibitors incorporating O-carbamoylserine and O-carbamoylthreonine as glutamine mimics” (Bioorg Med Chem Lett, 2007) are IC50 values, retold here.

The experiment deals with Signal transducer and activator of transcription 3 (Homo sapiens, UniProt P40763). Nature of the experiment: Inhibition of Stat3.
Sequence of Signal transducer and activator of transcription 3 (P40763 whole entry): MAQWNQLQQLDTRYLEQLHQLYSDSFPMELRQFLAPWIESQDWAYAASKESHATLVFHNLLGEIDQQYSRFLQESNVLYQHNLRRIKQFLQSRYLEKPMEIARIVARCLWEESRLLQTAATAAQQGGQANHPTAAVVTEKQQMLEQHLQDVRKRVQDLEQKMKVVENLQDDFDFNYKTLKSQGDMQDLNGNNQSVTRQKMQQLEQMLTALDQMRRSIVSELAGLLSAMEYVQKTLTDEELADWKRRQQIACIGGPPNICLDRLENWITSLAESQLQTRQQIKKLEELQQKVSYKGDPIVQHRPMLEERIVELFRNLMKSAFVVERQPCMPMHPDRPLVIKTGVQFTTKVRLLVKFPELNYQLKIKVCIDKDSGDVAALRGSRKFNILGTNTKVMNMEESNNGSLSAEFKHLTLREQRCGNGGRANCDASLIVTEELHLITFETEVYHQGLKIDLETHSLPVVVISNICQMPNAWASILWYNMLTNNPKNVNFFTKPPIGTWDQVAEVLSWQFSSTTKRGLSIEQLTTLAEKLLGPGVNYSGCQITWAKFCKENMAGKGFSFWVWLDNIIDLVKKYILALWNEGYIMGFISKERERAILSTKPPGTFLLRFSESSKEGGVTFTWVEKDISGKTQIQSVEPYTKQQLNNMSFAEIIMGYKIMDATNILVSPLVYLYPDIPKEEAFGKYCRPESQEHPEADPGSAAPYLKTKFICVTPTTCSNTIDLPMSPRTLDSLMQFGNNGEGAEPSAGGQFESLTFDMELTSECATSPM
On to `CC(C)C[C@H](NC(=O)/C=C/c1ccc(OP(=O)(O)O)cc1)C(=O)N1CCC[C@H]1C(=O)N[C@H](C(=O)NCc1ccccc1)[C@@H](C)OC(N)=O`, for which the midpoint of inhibition, the IC50, lay at 850 nM.
For `CC(C)C[C@H](NC(=O)/C=C/c1ccc(OP(=O)(O)O)cc1)C(=O)N1CCC[C@H]1C(=O)N[C@@H](CCC(N)=O)C(=O)NCc1ccccc1` the value was 135 nM; for `CC(C)C[C@H](NC(=O)/C=C/c1ccc(OP(=O)(O)O)cc1)C(=O)N1CCC[C@H]1C(=O)N[C@@H](COC(N)=O)C(=O)NCc1ccccc1`, 379 nM.

For orientation: IC50 means the concentration at which inhibition is half-maximal. A low value points to inhibition by little substance.
